Reference: patent publication US11896582B2, “Use and composition for treating myasthenia gravis and other myasthenic syndromes” (priority 2017, dated 2024)
Several values for one entry are separate records, joined by “and”; a condition that tells them apart may be missing. Identical values can stand only once.

Tested on: human subjects
Test: Phase I single-blind study: single increasing oral doses of pyridostigmine bromide with or without ondansetron, gastro-intestinal tolerability
Assay type: in vivo
Settings: healthy volunteers, one value per subject; for FID-1 Dose Limiting Adverse Event: pyridostigmine alone, oral
Experimental: A Phase I study was conducted in human subjects receiving a single oral dose of pyridostigmine bromide with or without a single oral dose of ondansetron hydrochloride dihydrate (“ondansetron”), as a representative 5HT3-antagonist. The study was a single center, single-blind study.
Following enrollment in the study, participants received single increasing oral doses of pyridostigmine, given once daily in the morning. The starting dose of pyridostigmine was 30 mg and the dose was increased daily by 30 mg increments. Once a subject had reached his/her first intolerable dose (“FID-1”), upward dose escalation was discontinued. FID was defined as: • (a) One (1) episode of vomiting, or • (b) Two (2) episodes of retching, or • (c) One (1) episode of severe nausea (Grade 3; defined as nausea interfering with activities of daily living or inadequate oral caloric or fluid intake; tube feeding, total parenteral nutrition or hospitalization indicated) lasting more than 1 hour, or • (d) Three (3) consecutive episodes at every 4-hour ratings of moderate nausea (Grade 2; defined as subjectively symptomatic, but not interfering with activities of daily living), or • (e) One (1) episode of moderate diarrhea (Grade 2; defined as 4-6 stools more than at baseline).
When a subject reached FID-1 on pyridostigmine alone, the subject was washed out for 2 to 7 days, and then received single daily doses of pyridostigmine starting at 30 mg and titrated upward by 30 mg increments, together with oral ondansetron hydrochloride dihydrate (10 mg, equivalent to 8 mg ondansetron base) until subjects again reached an intolerable dose (FID-2).
On each study day, subjects were followed up for up to 8 hours following drug administration for AEs, vital signs, ECGs. In addition, a laboratory panel was taken at screening and at the end of the study.

CN(C)C(=O)Oc1ccc[n+](C)c1 [Pyridostigmine, Pyridostigmine bromide]
FID-1 (Pyridostigmine alone) (first intolerable dose, single oral daily doses from 30 mg, raised by 30 mg increments): 60 mg (2×) and 90 mg
MTD-1 (Pyridostigmine alone) (maximum tolerated single oral dose): 30 mg and 60 mg
FID-1 Dose Limiting Adverse Event: Vomiting
FID-1 Dose Limiting Adverse Event (listed as pyridostigmine): vomiting
